One test deals with HIV-1 (RF) in MT-2 cells. The test can be described thus: microbe, parasite or virus in culture. It is filed as cell-based. The method, then:
DNA Plasmids and in vitro RNA transcripts:
Plasmid pDAB 72 containing both gag and pol sequences of BH10 (bp 113-1816) cloned into PTZ 19R was prepared according to Erickson-Viitanen et al. AIDS Research and Human Retroviruses 1989, 5, 577. The plasmid was linearized with Bam HI prior to the generation of in vitro RNA transcripts using the Riboprobe Gemini system II kit (Promega) with T7 RNA polymerase. Synthesized RNA was purified by treatment with RNase free DNAse (Promega), phenol-chloroform extraction, and ethanol precipitation. RNA transcripts were dissolved in water, and stored at −70° C. The concentration of RNA was determined from the A260.
Biotinylated capture probes were purified by HPLC after synthesis on an Applied Biosystems (Foster City, Calif.) DNA synthesizer by addition of biotin to the 5′ terminal end of the oligonucleotide, using the biotin-phosphoramidite reagent of Cocuzza, Tet. Lett. 1989, 30, 6287. The gag biotinylated capture probe (5-biotin-[…] 3′) was complementary to nucleotides 889-912 of HXB2 and the pol biotinylated capture probe (5′-biotin-[…] 3′) was complementary to nucleotides 2374-2395 of HXB2. Alkaline phosphatase conjugated oligonucleotides used as reporter probes were prepared by Syngene (San Diego, Calif.). The pol reporter probe (5′ […] 3′) was complementary to nucleotides 2403-2425 of HXB2. The gag reporter probe (5′ […] 3′) was complementary to nucleotides 950-973 of HXB2. All nucleotide positions are those of the GenBank Genetic Sequence Data Bank as accessed through the Genetics Computer Group Sequence Analysis Software Package (Devereau Nucleic Acids Research 1984, 12, 387). The reporter probes were prepared as 0.5μM stocks in 2× SSC (0.3M NaCl, 0.03M sodium citrate), 0.05M Tris pH 8.8, 1 mg/mL BSA. The biotinylated capture probes were prepared as 10 μM stocks in water.
Streptavidin coated plates:
Nunc-immunomodule microtiter plate strips were coated by addition of 200 μL of streptavidin (30 ug/mL, Scripps, La Jolla, Calif.) in freshly prepared 10 mM sodium carbonate (pH 9.6). Plates were incubated overnight at 4° C. Streptavidin solution was aspirated from the wells and a blocking buffer composed of phosphate buffered saline (PBS), 20 mg/mL bovine serum albumin (crystalline, nuclease and protease free, Calbiochem) and 100 mg/mL lactose (Sigma) was added to the plates for 3 hrs at room temperature. Blocking buffer was removed from the wells, which were allowed to dry overnight at room temperature and subsequently stored at 4° C. in zip lock bags with desiccant. For the majority of the compound evaluation experiments, streptavidin coated plates were obtained from Du Pont Biotechnology Systems (Boston, Mass.).
MT-2, CEM, and H9 cells were maintained in RPMI 1640 supplemented with 5% fetal calf serum (FCS), 2 mM L-glutamine and 50 μg/mL gentamycin, all from Gibco. Laboratory strains of HIV-1 (RF, MN and IIIB) were propagated in H9 cells in the same medium. Virus stocks were prepared approximately 1 month after acute infection of H9 cells by clarification of the tissue culture medium and storage of aliquots at −70° C. […] Each aliquot of virus stock used for infection was thawed only once. In some cases, infected H9 cells were shifted to Dulbecco's modified Eagle's medium 3-10 days before collection of virus in order to generate virus stocks in medium with low biotin content. Clinical isolates of HIV that had been passaged once in MT-2 cells were used to infect fresh MT-2 cells in RPMI medium. Three days after infection, cells were pelleted, resuspended and culture continued in Dulbecco's modified Eagle's medium as above. Virus stocks of clinical isolates were prepaid 10-15 days after infection when cytopathic effects were apparent in the culture.

Test [1] addresses single-chain tethered dimer of HIV protease (Human immunodeficiency virus 1, UniProt P04585). The test can be described thus: biochemical. The format is biochemical. Further details: fused on or other part: A second copy of the same protease unit is joined to the first by a short peptide tether, giving one polypeptide.
The mark [2] stands for this setting: Human immunodeficiency virus 1, MT2, 48 h, Table 2d, class symbols, read-out: IC90.
The mark [3] stands for this setting: read-out: HPLC K1, Table 2d, class symbols.
Setting [4] is: Human immunodeficiency virus 1, MT2, 48 h, Table 2d, HIV RNA assay, read-out: IC90.
The mark [5] stands for this setting: read-out: HPLC K1, Table 2d, HIV protease inhibition, HPLC method.

In brackets after ≈: the same amount, converted by molar mass. Where two headings read alike, the source gives them in different places.

A word on the IC90: it is the point of the concentration-response curve where the effect stands at 90%. Consider `O=C1N(CCCCCO)C(Cc2ccccc2)C(O)C(O)C(Cc2ccccc2)N1Cc1cccc(CO)c1` (stereo not shown) [Example 15WE], for which, in the test with HIV-1 (RF) in MT-2 cells (setting [2]), the IC90 is < 10 µg/mL. Besides, the Ki in test [1] (setting [3]) was < 10 nM.
For `O=Cc1cc(CN2C(=O)N(Cc3ccc(O)cc3)C(Cc3ccccc3)C(O)C(O)C2Cc2ccccc2)ccc1O` (stereo not shown) [Example 11E] the same measures were < 10 µg/mL and < 10 nM.
For the molecule `O=S1(=O)NC(Cc2ccccc2)C(O)C(O)C(Cc2ccccc2)N1CCCCCO` (stereo not shown) [23AE], the IC90 result in the test on HIV-1 (RF) in MT-2 cells (Table 2m) is “++/+ (The ++/+ is used in the cases where an IC90 was determined to be >50 μg/mL)”. Moreover, in test [1] (Table 2m, read-out: HPLC Ki), the Ki lay in the range of 10 to 1000 nM.
Consider `COC(=O)CCCCCN1C(=O)N(CCCCCC(=O)OC)C(Cc2ccccc2)C(O)C(O)C1Cc1ccccc1` (stereo not shown) [Example 12H], for which, in the test on HIV-1 (RF) in MT-2 cells (setting [2]), the IC90 lay in the range of 10 to 100 µg/mL (≈ 17.2 to 172 µM). The Ki in test [1] (setting [3]) fell in the range of 10 to 1000 nM.
For `O=C1N(CCCCCCCCO)C(Cc2ccccc2)C(O)C(O)C(Cc2ccccc2)N1CCCCCCCCO` (stereo not shown) [Example 12K] the same measures were < 10 µg/mL and 10 to 1000 nM.
For `O=S1(=O)N(CCCCCO)C(Cc2ccccc2)C(O)C(O)C(Cc2ccccc2)N1Cc1cccc(CO)c1` (stereo not shown) [23AH], the IC90 result in the test with HIV-1 (RF) in MT-2 cells (Table 2m) was “+++ (+++=<10 μg/mL)”. Moreover, the Ki in test [1] (Table 2m, read-out: HPLC Ki) was < 10 nM.
As to `COP1(=O)N(Cc2ccc(CO)cc2)[C@H](Cc2ccccc2)[C@H](O)[C@@H](O)[C@@H](Cc2ccccc2)N1Cc1ccc(CO)cc1` (stereo partly shown) [28H], the IC90 entry in the test with HIV-1 (RF) in MT-2 cells (Table 2r) is “++ (++=10 to 100 μg/mL)”. The Ki in test [1] (Table 2r, read-out: Ki HPLC) lay within 10 to 1000 nM.
Regarding `COc1cccc(CC2C(O)C(O)C(Cc3cccc(OC)c3)N(Cc3ccccc3)C(=O)N2Cc2ccccc2)c1` (stereo not shown) [Example 20W], the IC90 result in the test with HIV-1 (RF) in MT-2 cells (Table 2i) is listed as “+++ (+++=<10 μg/mL)”. Moreover, the Ki in test [1] (Table 2i, read-out: HPLC Ki) was < 10 nM.
With `O=C1NC(Cc2ccccc2)C(O)C(O)C(Cc2ccccc2)N1CCCCCO` (stereo not shown) [Example 15VG], the IC90 in the test on HIV-1 (RF) in MT-2 cells (setting [2]) was < 10 µg/mL. Moreover, in test [1] (setting [3]), the Ki was < 10 nM.
On to `NNC(=O)c1ccc(CN2C(=O)N(Cc3cccc(C(=O)NN)c3)C(Cc3ccccc3)C(O)C(O)C2Cc2ccccc2)cc1` (stereo not shown) [10N], for which, in the test on HIV-1 (RF) in MT-2 cells (Table 2d, class symbols), the IC90 result was “+++ (+++=<10 μg/mL)”. Besides, the Ki in test [1] (Table 2d, class symbols, read-out: HPLC K1) is < 10 nM.
Consider `O=C1N(Cc2ccc(OCc3ccccc3)cc2)C(Cc2ccccc2)C(O)C(O)C(Cc2ccccc2)N1Cc1cccc(-c2cc[nH]n2)c1` (stereo not shown) [Example 15BY], for which the IC90 with HIV-1 (RF) in MT-2 cells (setting [4]) was < 10 µg/mL. Besides, the Ki in test [1] (setting [5]) is < 10 nM.
Take `Cl.NCC(=O)Nc1cccc(CN2C(=O)N(Cc3ccc(CO)cc3)C(Cc3ccccc3)C(O)C(O)C2Cc2ccccc2)c1` (stereo not shown) [15XT]: in the test on HIV-1 (RF) in MT-2 cells (Table 2d, HIV RNA assay), the concentration for an effect of 90% (IC90) result is “+++ (+++=<10 μg/mL)”. For the same molecule, the Ki in test [1] (Table 2d, HIV protease inhibition, HPLC method, read-out: HPLC K1) is < 10 nM.
In the case of `O=C1N(CCCCCO)C(Cc2ccccc2)C(O)C(O)C(Cc2ccccc2)N1CC1CC1` (stereo not shown) [Example 15VU], the IC90 in the test with HIV-1 (RF) in MT-2 cells (setting [2]) is < 10 µg/mL. Further, the Ki in test [1] (setting [3]) was < 10 nM.
As for `Cl.Cl.O=C(NCCCCCN1C(=O)N(CCCCCNC(=O)c2ccncc2)C(Cc2ccccc2)C(O)C(O)C1Cc1ccccc1)c1ccncc1` (stereo not shown) [15FA], in the test with HIV-1 (RF) in MT-2 cells (HIV RNA assay, HIV-1 infected MT-2 cells, Table 2d), the IC90 result was “+++ (+++=<10 μg/mL)”. Moreover, the Ki in test [1] (HIV protease inhibition, HPLC method, Table 2d, read-out: HPLC K1) lay within 10 to 1000 nM.
`O=C(c1cccc(CN2C(=O)N(Cc3cccc(C(=O)c4cc[nH]n4)c3)C(Cc3ccccc3)C(O)C(O)C2Cc2ccccc2)c1)c1cc[nH]n1` (stereo not shown) [Example 15YN]: the IC90 in the test on HIV-1 (RF) in MT-2 cells (setting [4]) is < 10 µg/mL. In addition, in test [1] (setting [5]), the Ki was < 10 nM.
As to `O=C1N(Cc2ccc(CO)cc2)C(Cc2ccccc2)C(O)C(O)C(Cc2ccccc2)N1Cc1ccc(CO)cc1` (stereo not shown) [10Z], the IC90 result in the test on HIV-1 (RF) in MT-2 cells (Table 2d, class symbols) is given as “++ (++=10 to 100 μg/mL)”. Moreover, in test [1] (setting [3]), the Ki was > 1000 nM.
For `O=C1N(CCCCCO)C(Cc2ccccc2)C(O)C(O)C(Cc2ccccc2)N1Cc1cccc(O)c1` (stereo not shown) [Example 15VR], in the test with HIV-1 (RF) in MT-2 cells (setting [2]), the IC90 is < 10 µg/mL. In addition, the Ki in test [1] (setting [3]) was < 10 nM.

The record behind these values is patent USRE37781E1, “Substituted cyclic carbonyls and derivatives thereof useful as retroviral protease inhibitors” (DuPont Pharmaceuticals Company, priority 1991, dated 2002).
